# According to the NIST ThermoML archive (doi:10.1016/j.jct.2012.04.015):
# ± gives the expanded uncertainty stated by the source.
# Legend:
# [1] = refractive index (Na D-line) (dimensionless); settings: 101.33 kPa, Liquid, Standard Abbe refractometry
# [2] = 101.33 kPa, Liquid, Vibrating tube method
SMILES,refractive index ([1]; 298.15 K),mass density ([2]; 298.15 K) [kg/m3],refractive index ([1]; 303.15 K),mass density ([2]; 303.15 K) [kg/m3]
CCCCn1cc[n+](C)c1.O=S(=O)([O-])C(F)(F)F [1-butyl-3-methylimidazolium trifluoromethanesulfonate],1.43895 ± 0.00037,1303.63 ± 0.49,–,–
C1CCCCC1 [cyclohexane],1.42356 ± 0.00031,773.88 ± 0.13,–,–
Cc1ccccc1 [toluene],1.49398 ± 0.00031,862.23 ± 0.1,–,–
CCCCCC[n+]1ccn(C)c1.O=S(=O)([N-]S(=O)(=O)C(F)(F)F)C(F)(F)F,1.43016 ± 0.00037,1371.99 ± 0.55,–,–
CCCCCCn1cc[n+](C)c1.O=S(=O)([O-])C(F)(F)F [1-hexyl-3-methylimidazolium trifluoromethanesulfonate],–,–,1.43926 ± 0.00037,1232.55 ± 0.43
CCCCCCC [heptane],1.38529 ± 0.00033,679.57 ± 0.18,–,–
